Results reported in ChEMBL document CHEMBL1759878, “Design of semisynthetic analogues and 3D-QSAR study of eunicellin-based diterpenoids as prostate cancer migration and invasion inhibitors” (Eur J Med Chem, 2011).
Activity calls are given as the source filed them. The calls are words filed in the database; no cut-off is given here.

Legend:
Type in all cases: functional, cell-based
PC-3 [1] = test: Antimigratory activity against human PC3 cells assessed as inhibition of cell migration after 24 hrs by wound healing assay; conditions: PC-3, 24 h
PC-3 [2] = test: Antimigratory activity against human PC3 cells assessed as migrated cells measured under microscope at 37 uM after 24 hrs by wound healing assay relative to control
PC-3 [3] = test: Antiinvasive activity against human PC3 cells assessed as inhibition of cells invaded across basement membrane extract at 50 uM by calcein-acetomethylester fluorescence analysis

IC50 (PC-3 [1]; read-out: IC50)	IC50 (PC-3 [1]; read-out: pIC50 (converted))	Compound	Activity (PC-3 [2])	Activity (PC-3 [3])
84 µM	84 µM	C=C1CC[C@H](C(C)C)[C@@H]2[C@H]1[C@H]1C/C(C)=C\CC[C@@](C)(O)[C@@H]2O1 [6Z-CLADIELLIN]	–	–
52 µM	52 µM	CC(=O)O[C@]1(C)CC[C@H](C(C)C)[C@@H]2[C@H]1[C@H]1C[C@]3(C)CCC[C@@](C)(O3)[C@@H]2O1	–	–
67 µM	67 µM	C=C1CC[C@H](C(C)C)[C@@H]2[C@H]1[C@H]1CC(=C)[C@@H](OC(=O)NCCCCl)CC[C@@](C)(O)[C@@H]2O1	–	–
64 µM	64 µM	C=C1C[C@H]2O[C@H]([C@H]3[C@@H]2[C@](C)(OC(C)=O)CC[C@@H]3C(C)C)[C@@]2(C)CC[C@]1(O)O2 [PACHYCLADIN E]	–	–
59 µM	59 µM	C=C1CC[C@H](C(C)C)[C@@H]2[C@H]1[C@H]1C[C@](C)(O)[C@@H](OC)CCC(C)(O)[C@@H]2O1 (single isomer, unassigned) [SCLEROPHYTIN F METHYL ETHER]	–	–
160 µM	159 µM	C=C1CC[C@H](C(C)C)[C@@H]2[C@H]1[C@H]1C[C@](C)(O)[C@@H](O)CC[C@@](C)(OC(C)=O)[C@@H]2O1 [SCLEROPHYTIN B]	–	–
37 µM	37 µM	C=C1CC[C@H](C(C)C)[C@@H]2[C@H]1[C@H]1CC(=C)[C@@H](OC(=O)NCCCC)CC[C@@](C)(O)[C@@H]2O1	Active	Active
30 µM	30 µM	C=C1CC[C@H](C(C)C)[C@@H]2[C@H]1[C@H]1CC(=C)[C@@H](OC(=O)N(Cc3ccccc3)C(=O)NCc3ccccc3)CC[C@@](C)(O)[C@@H]2O1	–	Active
16 µM	16 µM	CC(=O)O[C@]1(C)CC[C@H](C(C)C)[C@@H]2[C@H]1[C@H]1C[C@](C)(O)[C@@H](O)CC[C@@](C)(OC(C)=O)[C@@H]2O1 [KLYSIMPLEXIN G]	–	–
97 µM	97 µM	C=CCNC(=O)N(CC=C)C(=O)N(CC=C)C(=O)O[C@H]1CC[C@@](C)(O)[C@@H]2O[C@H](CC1=C)[C@H]1C(=C)CC[C@H](C(C)C)[C@H]12	–	–
70 µM	70 µM	C=C1C[C@H]2O[C@H]([C@H]3[C@@H]2[C@]2(CC[C@@H]3C(C)C)CO2)[C@](C)(O)CC[C@@H]1OC(=O)N(Cc1ccccc1)C(=O)NCc1ccccc1	–	–
125 µM	125 µM	C=C1C[C@H]2O[C@H]([C@@H]3[C@@H](C(C)C)[C@H](O)C[C@@](C)(OC(C)=O)[C@@H]32)[C@](C)(OC(C)=O)CC[C@@H]1O [KLYSIMPLEXIN E]	–	–
90 µM	90 µM	C=C1C[C@H]2O[C@H]([C@H]3[C@@H]2[C@]2(CC[C@@H]3C(C)C)CO2)[C@](C)(O)CC[C@@H]1OC(=O)NCCCC (relative stereo)	–	–
76 µM	76 µM	C=C1CC[C@H](C(C)C)[C@@H]2[C@H]1[C@H]1C[C@](C)(O)[C@@H](OCC)CC[C@@](C)(O)[C@@H]2O1 [PATAGONICOL]	–	–
44 µM	44 µM	C=C1CC[C@H](C(C)C)[C@@H]2[C@H]1[C@H]1CC(=C)[C@@H](O)CC[C@@](C)(OC(C)=O)[C@@H]2O1	–	–
36 µM	36 µM	C=C1CC[C@H](C(C)C)[C@@H]2[C@H]1[C@H]1CC(=C)[C@@H](OC(C)=O)CC[C@@](C)(OC(C)=O)[C@@H]2O1	–	–
88 µM	88 µM	C=C1C[C@H]2O[C@H]([C@@H]3[C@@H](C(C)C)[C@H](O)C[C@@](C)(OC(=O)CCC)[C@@H]32)[C@](C)(OC(C)=O)CC[C@@H]1O [PACHYCLADIN B]	–	–
160 µM	160 µM	C=C1C[C@H]2O[C@H]([C@H]3[C@@H]2[C@]2(CC[C@@H]3C(C)C)CO2)[C@](C)(O)CC[C@@H]1O (relative stereo)	–	Active
56 µM	56 µM	C=C1CC[C@H](C(C)C)[C@@H]2[C@H]1[C@H]1CC(=C)[C@@H](OC(C)=O)CC[C@@](C)(O)[C@@H]2O1 [PACHYCLADIN C]	–	–
43 µM	43 µM	C=C1CC[C@H](C(C)C)[C@@H]2[C@H]1[C@H]1CC(=C)[C@@H](OC(=O)NCCCCC)CC[C@@](C)(O)[C@@H]2O1	–	–
57 µM	57 µM	C=C1CC[C@H](C(C)C)[C@@H]2[C@H]1[C@H]1CC(=C)[C@@H](OC(=O)Nc3ccccc3)CC[C@@](C)(O)[C@@H]2O1	–	–
75 µM	75 µM	C=C1CC[C@H](C(C)C)[C@@H]2[C@H]1[C@H]1CC(=C)[C@]3(O)CC[C@@](C)(O3)[C@@H]2O1 [PACHYCLADIN D]	–	–
88 µM	88 µM	C=C1CC[C@H](C(C)C)[C@@H]2[C@H]1[C@@H]1CC(=C)[C@@H](O)CC[C@](C)(O)[C@H]2O1 [CLADIELLISIN]	–	Active
5 µM	5 µM	CCCC(=O)O[C@]1(C)CC[C@H](C(C)C)[C@@H]2[C@H]1[C@H]1C[C@](C)(O)[C@@H](O)CC[C@@](C)(OC(C)=O)[C@@H]2O1 [PACHYCLADIN A]	–	–
122 µM	122 µM	C=C1CC[C@H](C(C)C)[C@@H]2[C@H]1[C@H]1CC(=C)[C@@H](OC(=O)NCCCCCCCC)CC[C@@](C)(O)[C@@H]2O1	–	–
84 µM	84 µM	C=C1CC[C@H](C(C)C)[C@@H]2[C@H]1[C@H]1C[C@](C)(O)[C@@H](O)CC[C@@](C)(O)[C@@H]2O1 [SCLEROPHYTIN A]	–	–
